Reference: patent US20230355631A1, “PROCESS FOR IMPROVING FLUIDITY OF PALBOCICLIB ISETHIONATE AND COMPOSITION” (NANJING GRITPHARMA CO., LTD., priority 2020, published 2023)

Experiment: Properties of the granules / powder mix (angle of repose, bulk density, tap density, compression index)
Type: physicochemical
Details: bulk drug powder
Procedure: With reference to Example 7, 5 batches of samples 7-1, 7-2, 7-3, 7-4, and 7-5 were prepared by a capsule filling process after granules were prepared by dry granulation at different press roll pressures (a GL5-50 dry granulation machine with a 2.0 mm primary granulation sieve and a 1.0 mm secondary granulation sieve was used), and properties of the granules (including angle of repose, bulk density, and tap density), content uniformity of finished products, and other indexes were investigated separately. […] According to requirements of pharmacopoeia, the release rate of the samples is equal to or greater than 80% (Q) of the labelled amount in a medium with a pH of 1.2 within 30 minutes. Thus, the release rate of the various batches of samples (7-1, 7-2, 7-3, 7-4, and 7-5) was investigated in a medium with a pH of 1.2.
The palbociclib isethionate has poor fluidity and is a loose powder. […] Especially when capsules are filled in commercial batches in a large scale, the problem of difficulty in automatic filling at high speed will be caused due to poor fluidity of the powder. Moreover, the filled capsules have great differences in loading capacity, so that the content uniformity and the product quality are unqualified. […]

Fluidity of the raw material: poor fluidity
SMILES: CC(=O)c1c(C)c2cnc(Nc3ccc(N4CCNCC4)cn3)nc2n(C2CCCC2)c1=O.O=S(=O)(O)CCO [palbociclib isethionate]
